Test results published in patent US7517890B2, “GTPase inhibitors and methods of use” (Children's Hospital Medical Center, priority 2003, dated 2009).

Columns and labels:
[1] = molecular target: PDZ-RhoGEF-stimulated mantGDP/GTP exchange of RhoA (Homo sapiens, UniProt P61586); experiment: In vitro guanine nucleotide exchange assay (mant-GDP), RhoA / PDZ-RhoGEF; format: biochemical; conditions: 200 μM compound
Description: In vitro guanine nucleotide exchange assay. For these, 200 nM Rac1 loaded with mant-GDP is incubated at 25° C. in an exchange buffer containing 100 mM NaCl, 5 mM MgCl2, 50 mM Tris-HCl (pH 7.6), and 0.5 mM GTP in the absence or presence of 200 nM Trio. The mant-GDP fluorescence changes in the course of the exchange reactions are monitored with an excitation wavelength at 360 nm and the emission wavelength at 440 nm by a Cary Ellipse fluorescence spectrometer (Varian, Inc.).
In FIG. 3. […] In FIG. 3A, NSC23766 inhibited TrioN catalyzed GDP/GTP exchange of Rac1 in a dose dependent manner. 200 nM Rac1 loaded with mant-GDP was incubated at 25° C. in an exchange buffer containing 100 mM NaCl, 5 mM MgCk2, 50 mM Tris-HCl (PH 7.6), and 0.5 mM GTP in the absence (top line) or presence of 100 nM TrioN. Increasing concentrations of NSC23766 were included in the exchange buffer as indicated. In FIG. 3B, NSC23766 had no effect on the Intersectin-stimulated GDP/GTP exchange of Cdc42. 200 nM Cdc42 loaded with mant-GDP was incubated in the exchange buffer in the absence (top line) or presence of 100 nM Intersectin with or without 200 μM NSC23766. In FIG. 3C, the exchange reaction of RhoA catalyzed by PDZ-RhoGEF was carried out similarly in the presence or absence of 200 μM NSC23766.

[2] = system: PC-3 cells; experiment: Matrigel cell invasion assay; conditions: 25 μM compound, 24 hrs
Description: Cell invasion assays. The cell invasion assays are performed using 6.4-mm Biocoat Matrigel invasion chambers with 8.0-micron pore size PET membrane (Becton-Dickinson) according to the manufactory instructions. Briefly, 5×10^4 cells are resuspended in 0.5 ml of serum free culture medium and added to the upper chamber. 10% fetal bovine serum in the culture medium is used as a chemo-attractant in the lower chamber. After the cells are incubated for overnight, the number of cell passed through the Matrigel is counted.
Cells invaded through Matrigel matrix were visualized with Giemasa staining.

[3] = molecular target: endogenous RhoA (Mus musculus, UniProt Q9QUI0); experiment: Endogenous Rho GTPase activity assay (GST-Rhotekin pull-down), RhoA in NIH 3T3 cells; conditions: NIH 3T3 cells in 10% serum
Sequence of endogenous RhoA (Q9QUI0 whole entry): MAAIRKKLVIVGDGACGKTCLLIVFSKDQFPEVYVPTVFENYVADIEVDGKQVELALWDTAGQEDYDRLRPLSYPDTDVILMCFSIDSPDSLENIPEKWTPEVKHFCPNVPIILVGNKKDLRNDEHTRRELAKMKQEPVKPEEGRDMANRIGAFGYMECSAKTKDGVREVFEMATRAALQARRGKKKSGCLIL
Description: Endogenous Rho GTPase activity assay. […] Cells are grown in log phase in a 10 cm dish, and are starved in 0.5% serum medium or indicated otherwise for 24 hrs prior to lysis in a buffer containing 20 mM Tris-HCl (pH 7.6), 100 mM NaCl, 10 mM MgCl2, 1% NP-40, 10% glycerol, and 1× proteases inhibitor cocktail (Roch). Lysates are clarified and the protein concentrations are normalized. The cell lysates containing equal amount of proteins are incubated with 10 μg GST- or His6-fusion probes for 40 min at 4° C. under constant rotation. The beads are washed twice with the lysis buffer, and the bound-Rho GTPases are detected by anti-Rac1 (Upstate), or anti-Cdc42 (BD Transduction Laboratories) Western blotting. Quantification of the Western blots is carried out using a LAS-1000 luminescent image analyzer (Fujifilm medical system, USA, Inc.).
Cell lysates containing similar amount of Rac1, Cdc42 or RhoA were incubated with the agarose immobilized GST-PAK1, GST-WASP or GST-Rhotekin, and the co-precipitates were subjected to anti-Rac1, Cdc42 or RhoA Western blot analysis to reveal the amount of GTP-Bound Rho proteins.

[4] = system: Swiss 3T3 cells; experiment: Immunofluorescence of PDGF-stimulated lamellipodia formation (actin staining); conditions: for PDGF induction of lamellipodia at the cell edges in the presence of compound: 100 μM compound, 10 nM PDGF
Description: Immunofluorescence. […] The cellular actin is stained with TRITC-labeled phalloidin (Sigma) at 10 μg/ml in PBS for 40 min at room temperature. The actin and cell morphological changes are visualized by fluorescence microscopy.
The cells were fixed and stained with Rhodamine-labeled phalloidin.

[5] = system: Tiam1-expressing NIH 3T3 cells; experiment: Transformation of GEF-expressing NIH 3T3 cells (foci, soft agar); format: cell-based; conditions: foci: 50 μM every two days, 14 days, soft agar: 100 μM
[6] = system: PC-3 cells; experiment: PC-3 cell growth (CellTiter 96 AQueous assay); conditions: 5% serum, indicated concentrations of compound
Description: Cell growth assay. […] The growth rate of the prostate PC-3 cells is measured by the CellTiter 96 AQueous assay (Promega). 1,500 cells/well in 200 μl of 5% FBS medium are plated in 96-well plates and are grown under normal conditions. Cultures are assayed in 0, 1, 2, 3, 4, or 5 days by the addition of 20 μl of the combined MTS/PMS solution followed by incubation for one hour at 37° C. Absorbency is measured at a wavelength of 490 nm on an automated microplate reader.
The cells were split in triplicate in 96-wells at 1.5×10^3 cells per well. Cell numbers were assayed by using CellTiter 96 AQueous cell proliferation assay kit in different days.

[7] = system: PC-3 cells; experiment: Anchorage independent growth of PC-3 cells in soft agar
Description: Anchorage independent growth.
The cells were split in triplicate in 96-wells at 1.5×10^3 cells per well.

[8] = molecular target: T1, RhoA binding to PDZ-RhoGEF (Homo sapiens, UniProt P61586); experiment: Complex formation assay, RhoA with PDZ-RhoGEF; conditions: varying concentrations of compound
T1 construct: made in house; host or cells: Cos-7 (PDZ-RhoGEF, used as lysate)
T1 sequence (P61586 whole entry): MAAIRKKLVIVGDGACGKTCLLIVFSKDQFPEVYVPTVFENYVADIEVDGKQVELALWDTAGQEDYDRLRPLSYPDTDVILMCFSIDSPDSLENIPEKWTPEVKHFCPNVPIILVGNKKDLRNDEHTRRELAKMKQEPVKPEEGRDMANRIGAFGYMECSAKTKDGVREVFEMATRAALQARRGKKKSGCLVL
Description: Trio and Tiam-1 co-precipitate with GST-Rac1, but not GST or GST-Cdc42.
In FIG. 2A, 0.5 μg of (His)6-tagged TrioN was incubated with GST alone or nucleotide-free, GST-fused Cdc42 or Rac1 (2 μg) in the binding buffer containing different concentrations of NSC23766 and 10 μl suspended glutathione-agarose. After an incubation at 4° C. for 30 minutes, the beads associated (His)6-TrioN were detected by anti-His Western blotting. The blots were quantified by densitometry analysis. The results are representative of three measurements. In FIG. 2B, myc-tagged Tiam1 expressed in Cos-7 cell lysates were incubated with (His)6-Rac1 in the presence of increasing concentrations of NSC23766. The association of Rac1 with Tiam1 was examined by anti-His blot after anti-myc immunoprecipitation. In FIG. 2C, the AU-tagged PDZ-RhoGEF was expressed in Cos-7 lysates and incubated with GST or GST-RhoA in the presence of varying concentrations of NSC23766. The RhoA associated PDZ-RhoGEF was probed with anti-AU antibody after affinity precipitation by glutathione agarose beads. In FIG. 2D, (His)6-Rac1 loaded with GTPγ S was incubated with GST-BcrGAP or GST-PAK1 (PBD) in the presence or absence of 200 μM NSC23766 and the interaction with GSTBcrGAP or GST-PAK1 was probed by anti-His blot after affinity precipitation by glutathione agarose beads.

[9] = system: NIH 3T3 cells; experiment: Cell growth assay, wild type and RacL61- or GEF-transfected NIH 3T3 cells; format: cell-based; conditions: 5% serum, 100 μM compound

Sequence of PDZ-RhoGEF-stimulated mantGDP/GTP exchange of RhoA (P61586 whole entry): as above

## CCN(CC)CCCC(C)Nc1nc(C)cc(Nc2ccc3nc(C)cc(N)c3c2)n1 (stereo not drawn) [compound 23766, N^6-(2-((4-(diethylamino)-1-methylbutyl)amino)-6-methyl-4-pyrimidinyl)-2-methyl-4,6-quinolinediamine]
[1]
  effect on PDZ-RhoGEF-stimulated mantGDP/GTP exchange of RhoA: little impact
[2]
  PC-3 cell invasion: significantly inhibits
[3]
  level of RhoA-GTP in cells: slightly increased level
[4]; 50 μM compound, overnight serum starvation, 10 nM PDGF (FIG. 4C legend)
  PDGF-stimulated lamellipodia formation: inhibited PDGF-stimulated lamellipodia formation
[4]; 5 min
  PDGF induction of lamellipodia at the cell edges in the presence of compound: only marginally effective
[4]; 10 min
  PDGF induction of lamellipodia at the cell edges in the presence of compound: completely ineffective
[5]
  Rac GEF stimulated cell growth and transformation: specifically inhibited
[6]
  proliferation rates of PC-3 cells: inhibited by compound 23766 in a dose dependent manner
[7]
  size of colonies of treated cells versus untreated: much smaller
[7]; 25 μM compound
  colony-forming activity remaining: Approximately 10%
[7]; 50 μM compound
  colony-forming activity remaining: ~1%
[8]
  effect on RhoA binding to PDZ-RhoGEF: does not interfere
[9]
  growth of wild type NIH 3T3 cells: slow the growth
  growth rate of Rac1L61 expressing NIH 3T3 cells: no effect
[9]; GEF expressing NIH 3T3 cells
  cell growth induced by the Rac specific GEF Trio: capable of inhibiting
